Test results reported in patent US11364248B2 (AMGEN INC., priority 2017, dated 2022).
Read-outs that look alike come from different tables or passages of the source.

Legend:
OPM-2 = experiment: Cell Viability Assay (OPM-2 10 FBS); type: cell-based, human; details: OPM-2 cells, CellTiter-Glo, read-out: OPM-2 10% FBS IC50 IP
Summary of the method: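 OPM-2 myeloma cells seeded at 3000 cells/well in RPMI 1640 with 10% FBS and exposed to serially diluted compounds for 16 h at 37° C., 5% CO2.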

Mcl-1/Bim interaction = Mcl-1/Bim interaction (Homo sapiens (Human), UniProt Q07820); experiment: Cell Free Mcl-1: Bim Affinity Assay (Mcl-1 HTRF); type: binding; details: TR-FRET, recombinant human Mcl-1(171-327), biotin-Bim(51-76); read-out: Mel-1 HTRF IC50
Mcl-1/Bim interaction, sequence (Q07820 171-327): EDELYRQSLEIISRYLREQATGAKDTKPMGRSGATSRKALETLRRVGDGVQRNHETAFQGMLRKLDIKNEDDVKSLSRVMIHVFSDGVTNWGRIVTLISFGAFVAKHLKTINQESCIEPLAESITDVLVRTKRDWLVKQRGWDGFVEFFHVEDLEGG
Summary of the method: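 TR-FRET competition assay: 0.1 nM His-tagged human Mcl-1(171-327) and 0.05 nM biotin-Bim(51-76) were pre-incubated 60 min with compound in 20 mM Hepes pH 7.5, 150 mM NaCl, Brij35, 1 mM DTT, then with Eu-anti-His/streptavidin-Xlent overnight. The 665/620 nm ratio was fitted by four-parameter model to IC50 (duplicates).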

Row | Compound | IC50 (OPM-2; Homo sapiens, OPM-2, 16 h) [nM] | IC50 (Mcl-1/Bim interaction) [nM] | IC50 (OPM-2; 16 h) [nM]
1 | CCN[C@H]1CO[C@H]([C@H]2CCC[C@H](C)[C@@H](C)S(=O)(=O)NC(=O)c3ccc4c(c3)N(C[C@@H]3CC[C@H]32)C[C@@]2(CCCc3cc(Cl)ccc32)CO4)OC1 [Example 27, (1S,3′R,6′R,7′S,11′S,12′R)-6-chloro-7′-(trans-5-(ethylamino)-1,3-dioxan-2-yl)-11′,12′-dimethyl-3,4-dihydro-2H,15′H-spiro[naphthalene-1,22′-[20]oxa[13]thia[1,14]diazatetracyclo [14.7.2.0~3,6~.0~19,24~]pentacosa[16,18,24]trien]-15′-one 13′,13′-dioxide] | 155 | 0.37 | 
2 | CCN(CC)[C@H]1CO[C@H]([C@H]2CCC[C@H](C)[C@@H](C)S(=O)(=O)NC(=O)c3ccc4c(c3)N(C[C@@H]3CC[C@H]32)C[C@@]2(CCCc3cc(Cl)ccc32)CO4)OC1 [Example 28, (1S,3′R,6′R,7′S,11′S,12′R)-6-chloro-7′-(trans-5-(diethylamino)-1,3-dioxan-2-yl)-11′,12′-dimethyl-3,4-dihydro-2H,15′H-spiro[naphthalene-1,22′-[20]oxa[13]thia[1,14]diazatetracyclo [14.7.2.0~3,6~.0~19,24~]pentacosa[16,18,24]trien]-15′-one 13′,13′-dioxide] | 403 | 0.477 | 
3 | CC(=O)N1C[C@@H]2O[C@@H]([C@H]3CCC[C@H](C)[C@@H](C)S(=O)(=O)NC(=O)c4ccc5c(c4)N(C[C@@H]4CC[C@H]43)C[C@@]3(CCCc4cc(Cl)ccc43)CO5)O[C@@H]2C1 [Example 36, (1S,3′R,6′R,7′S,11′S,12′R)-7′-((2r,3aR,6aS)-5-acetyltetrahydro-3aH-[1,3]dioxolo[4,5-c]pyrrol-2-yl)-6-chloro-11′,12′-dimethyl-3,4-dihydro-2H,15′H-spiro[naphthalene-1,22′-[20]oxa[13]thia[1,14]diazatetracyclo [14.7.2.0~3,6~.0~19,24~]pentacosa[16,18,24]trien]-15′-one 13′,13′-dioxide] |  | 0.217 | 169
4 | CC(=O)N1C[C@@H]2O[C@H]([C@H]3CCC[C@H](C)[C@@H](C)S(=O)(=O)NC(=O)c4ccc5c(c4)N(C[C@@H]4CC[C@H]43)C[C@@]3(CCCc4cc(Cl)ccc43)CO5)O[C@@H]2C1 [Example 37, (1S,3′R,6′R,7′S,11′S,12′R)-7′-((2s,3aR,6aS)-5-acetyltetrahydro-3aH-[1,3]dioxolo[4,5-c]pyrrol-2-yl)-6-chloro-11′,12′-dimethyl-3,4-dihydro-2H,15′H-spiro[naphthalene-1,22′-[20]oxa[13]thia[1,14]diazatetracyclo [14.7.2.0~3,6~.0~19,24~]pentacosa[16,18,24]trien]-15′-one 13′,13′-dioxide] |  | 0.098 | 148
5 | CC(=O)N1C[C@@H]2O[C@@H]([C@H]3CCC[C@H](C)[C@@H](C)S(=O)(=O)NC(=O)c4ccc5c(c4)N(C[C@@H]4CC[C@H]43)C[C@@]3(CCCc4cc(Cl)ccc43)CO5)O[C@@H]2C1 [Example 38, (1S,3′R,6′R,7′S,11′S,12′R)-7′-((2r,3aR,6aS)-5-acetyltetrahydro-3aH-[1,3]dioxolo[4,5-c]pyrrol-2-yl)-6-chloro-11′,12′-dimethyl-3,4-dihydro-2H,15′H-spiro[naphthalene-1,22′-[20]oxa[13]thia[1,14]diazatetracyclo [14.7.2.0~3,6~.0~19,24~]pentacosa[16,18,24]trien]-15′-one 13′,13′-dioxide] |  | 0.537 | 819
6 | C[C@@H]1[C@@H](C)CCC[C@H]([C@H]2OC[C@](N)(CO)CO2)[C@@H]2CC[C@H]2CN2C[C@@]3(CCCc4cc(Cl)ccc43)COc3ccc(cc32)C(=O)NS1(=O)=O [Example 40, (1S,3′R,6′R,7′S,11′S,12′R)-7′-(cis-5-amino-5-(hydroxymethyl)-1,3-dioxan-2-yl)-6-chloro-11′,12′-dimethyl-3,4-dihydro-2H,15′H-spiro[naphthalene-1,22′-[20]oxa[13]thia[1,14]diazatetracyclo [14.7.2.0~3,6~.0~19,24~]pentacosa[16,18,24]trien]-15′-one 13′,13′-dioxide] |  | 0.577 | 1560
7 | CC(=O)N(C)[C@H]1CO[C@@H]([C@H]2CCC[C@H](C)[C@@H](C)S(=O)(=O)NC(=O)c3ccc4c(c3)N(C[C@@H]3CC[C@H]32)C[C@@]2(CCCc3cc(Cl)ccc32)CO4)OC1 [Example 47, N-(cis-2-((1S,3′R,6′R,7′S,11′S,12′R)-6-chloro-11′,12′-dimethyl-13′,13′-dioxido-15′-oxo-3,4-dihydro-2H-spiro[naphthalene-1,22′-[20]oxa[13]thia[1,14]diazatetracyclo [14.7.2.0~3,6~.0~19,24~]pentacosa[16,18,24]trien]-7′-yl)-1,3-dioxan-5-yl)-N-methylacetamide] | 545 | 0.568 | 
8 | CN[C@H]1CO[C@H]([C@H]2CCC[C@H](C)[C@@H](C)S(=O)(=O)NC(=O)c3ccc4c(c3)N(C[C@@H]3CC[C@H]32)C[C@@]2(CCCc3cc(Cl)ccc32)CO4)OC1 [Example 48, (1S,3′R,6′R,7′S,11′S,12′R)-6-chloro-11′,12′-dimethyl-7′-(trans-5-(methylamino)-1,3-dioxan-2-yl)-3,4-dihydro-2H,15′H-spiro[naphthalene-1,22′-[20]oxa[13]thia[1,14]diazatetracyclo [14.7.2.0~3,6~.0~19,24~]pentacosa[16,18,24]trien]-15′-one 13′,13′-dioxide] |  | 0.59 | 184
9 | CN[C@H]1CO[C@H]([C@H]2CCC[C@H](C)[C@@H](C)S(=O)(=O)NC(=O)c3ccc4c(c3)N(C[C@@H]3CC[C@H]32)C[C@@]2(CCCc3cc(Cl)ccc32)CO4)OC1 [Example 49, (1S,3′R,6′R,7′S,11′S,12′R)-6-chloro-11′,12′-dimethyl-7′-(trans-5-(methylamino)-1,3-dioxan-2-yl)-3,4-dihydro-2H,15′H-spiro[naphthalene-1,22′-[20]oxa[13]thia[1,14]diazatetracyclo [14.7.2.0~3,6~.0~19,24~]pentacosa[16,18,24]trien]-15′-one 13′,13′-dioxide] |  | 1.52 | 966
10 | C[C@@H]1[C@@H](C)CCC[C@H]([C@H]2OC[C@@H](N3CC4(COC4)C3)CO2)[C@@H]2CC[C@H]2CN2C[C@@]3(CCCc4cc(Cl)ccc43)COc3ccc(cc32)C(=O)NS1(=O)=O [Example 60, (1S,3′R,6′R,7′S,11′S,12′R)-6-chloro-11′,12′-dimethyl-7′-(cis-5-(2-oxa-6-azaspiro[3.3]hept-6-yl)-1,3-dioxan-2-yl)-3,4-dihydro-2H,15′H-spiro[naphthalene-1,22′-[20]oxa[13]thia[1,14]diazatetracyclo [14.7.2.0~3,6~.0~19,24~]pentacosa[16,18,24]trien]-15′-one 13′,13′-dioxide] | 610 | 0.897 | 
11 | C[C@@H]1[C@@H](C)CCC[C@](C)([C@H]2OC[C@@H](N(C)C)CO2)[C@@H]2CC[C@H]2CN2C[C@@]3(CCCc4cc(Cl)ccc43)COc3ccc(cc32)C(=O)NS1(=O)=O [Example 65, (1S,3′R,6′R,7′S,11′S,12′R)-6-chloro-7′-(cis-5-(dimethylamino)-1,3-dioxan-2-yl)-7′,11′,12′-trimethyl-3,4-dihydro-2H,15′H-spiro[naphthalene-1,22′-[20]oxa[13]thia[1,14]diazatetracyclo [14.7.2.0~3,6~.0~19,24~]pentacosa[16,18,24]trien]-15′-one 13′,13′-dioxide] | 1560 | 5.02 | 
12 | CCN(C)[C@H]1CO[C@@H]([C@H]2CCC[C@H](C)[C@@H](C)S(=O)(=O)NC(=O)c3ccc4c(c3)N(C[C@@H]3CC[C@H]32)C[C@@]2(CCCc3cc(Cl)ccc32)CO4)OC1 [Example 66, (1S,3′R,6′R,7′S,11′S,12′R)-6-chloro-7′-(cis-5-(ethyl(methyl)amino)-1,3-dioxan-2-yl)-11′,12′-dimethyl-3,4-dihydro-2H,15′H-spiro[naphthalene-1,22′-[20]oxa[13]thia[1,14]diazatetracyclo [14.7.2.0~3,6~.0~19,24~]pentacosa[16,18,24]trien]-15′-one 13′,13′-dioxide] | 326 | 1.29 | 
13 | C[C@@H]1[C@@H](C)CCC[C@H]([C@H]2OC[C@@H](N(C)C3CC3)CO2)[C@@H]2CC[C@H]2CN2C[C@@]3(CCCc4cc(Cl)ccc43)COc3ccc(cc32)C(=O)NS1(=O)=O [Example 69, (1S,3′R,6′R,7′S,11′S,12′R)-6-chloro-7′-(cis-5-(cyclopropyl(methyl)amino)-1,3-dioxan-2-yl)-11′,12′-dimethyl-3,4-dihydro-2H,15′H-spiro[naphthalene-1,22′-[20]oxa[13]thia[1,14]diazatetracyclo [14.7.2.0~3,6~.0~19,24~]pentacosa[16,18,24]trien]-15′-one 13′,13′-dioxide] |  | 0.535 | 415
14 | C[C@@H]1[C@@H](C)CCC[C@H]([C@H]2OC[C@@H](N(C)C3CC3)CO2)[C@@H]2CC[C@H]2CN2C[C@@]3(CCCc4cc(Cl)ccc43)COc3ccc(cc32)C(=O)NS1(=O)=O [Example 70, (1S,3′R,6′R,7′S,11′S,12′R)-6-chloro-7′-(cis-5-(cyclopropyl(methyl)amino)-1,3-dioxan-2-yl)-11′,12′-dimethyl-3,4-dihydro-2H,15′H-spiro[naphthalene-1,22′-[20]oxa[13]thia[1,14]diazatetracyclo [14.7.2.0~3,6~.0~19,24~]pentacosa[16,18,24]trien]-15′-one 13′,13′-dioxide] |  | 1.31 | 1580
